Experimental data from US20120309706A1, “COMBINED TREATMENT OF PANCREATIC CANCER WITH GEMCITABINE AND MASITINIB” (AB SCIENCE, priority 2010, published 2012).
Where two headings read alike, the source gives them in different places. Marks after values point to notes of the source that are not given here.

Key:
BxPC-3 = test: WST-1 proliferation/survival assay, BxPC-3; assay type: cell-based, human; conditions: BxPC-3, single agent, 1% FCS
Protocol: (§1) Sensitivity of pancreatic tumour cell lines to masitinib or gemcitabine as single agents, or in combination, was assessed using WST-1 proliferation assays. Four cell lines were tested for their sensitivity to masitinib (A) or gemcitabine (B). […] (D) Sensitivity of resistant Mia Paca-2 cells to various tyrosine kinase inhibitors alone (top) or in combination with gemcitabine (bottom) was analyzed in WST-1 proliferation assays.
(§2) Pancreatic cancer cells lines (Mia Paca-2, Panc-1, BxPC-3 and Capan-2) were obtained from Dr. Juan Iovanna (Inserm, France). Cells were maintained in RPMI (BxPC-3, Capan-2) or DMEM (Mia Paca-2, Panc-1) medium containing glutamax-1 (Lonza), supplemented with 100 U/ml penicillin/100 μg/ml streptomycin, and 10% foetal calf serum (FCS) (AbCys, Lot S02823S1800). Expression of tyrosine kinases was determined by RT-PCR using Hot Star Taq (Qiagen GmbH, Hilden, Germany) in a 2720 Thermal Cycler (Applied Biosystems).
Cytotoxicity of masitinib and gemcitabine was assessed using a WST-1 proliferation/survival assay (Roche diagnostic) in growth medium containing 1% FCS. Treatment was started with the addition of the respective drug. […] After 72 hours WST-1 reagent was added and incubated with the cells for 4 hours before absorbance measurement at 450 nm in an EL800 Universal Microplate Reader (Bio-Tek Instruments Inc.). […]

Capan-2 = test: WST-1 proliferation/survival assay, Capan-2; assay type: cell-based, human; conditions: Capan-2, single agent, 1% FCS
Protocol: as §1, §2
(§3) Cytotoxicity of masitinib and gemcitabine was assessed using a WST-1 proliferation/survival assay (Roche diagnostic) in growth medium containing 1% FCS. Treatment was started with the addition of the respective drug. […] After 72 hours WST-1 reagent was added and incubated with the cells for 4 hours before absorbance measurement at 450 nm in an EL800 Universal Microplate Reader (Bio-Tek Instruments Inc.). Media alone was used as a blank and proliferation in the absence of compounds served as positive control. Results are representative of three/four experiments. The masitinib sensitisation index is the ratio of the IC50 of gemcitabine against the IC50 of the drug combination.

Mia Paca-2 = test: WST-1 proliferation/survival assay, Mia Paca-2; assay type: cell-based, human; conditions: for IC50: Homo sapiens; for response of Mia Paca-2 cells to gemcitabine after pre-incubation with TKI: 10 μM imatinib or dasatinib, compared to masitinib
Protocol: as §1, §2, §3
Comparison of masitinib to other TKIs for their potential to sensitize gemcitabine-resistant pancreatic cancer cells: Similar TKI plus gemcitabine combination experiments to those described above were performed with gemcitabine-resistant Mia Paca-2 cells to compare masitinib with imatinib (Gleevec™, STI-571; Novartis, Basel, Switzerland), a TKI targeting ABL, PDGFR, and c-Kit); and dasatinib (Sprycel, Bristol-Myers Squibb), a TKI targeting SRC, ABL, PDGFR, and c-Kit.

Panc-1 = test: WST-1 proliferation/survival assay, Panc-1; assay type: cell-based; conditions: Homo sapiens
Protocol: as §1, §2, §3

[1] = system: Mia Paca-2 pancreatic tumours; test: Nog-SCID mouse model of human pancreatic cancer; assay type: in vivo, Nog-SCID mice; conditions: for Tumour volume, Median: following 28 days of treatment (day 56)
Protocol: Mia Paca-2 tumour cells (10^7) were injected into the flank of Nog-SCID mice. Treatment was initiated 28 days after tumour cell injection. The different groups were treated with either: twice weekly injections of gemcitabine (i.p. 50 mg/kg), daily oral masitinib (100 mg/kg), water (control), or combined daily oral masitinib (100 mg/kg) and twice weekly injections of gemcitabine. Mice were treated for 56 days.
Male Nog-Scid mice (7 weeks old) were obtained from internal breeding and were housed under specific pathogen-free conditions at 20±1° C. in a 12-hour light/12-hour dark cycle and ad libitum access to food and filtered water. Mia Paca-2 cells were cultured as described above. At day 0 (D0), mice were injected with 107 Mia Paca-2 cells in 200 μl PBS into the right flank. Tumours were allowed to grow for 1.5 to 4 weeks until the desired tumour size was reached (˜200 mm3). At day 28, animals were allocated into four treatment groups (n=7 to 8 per group), ensuring that each group's mean body weight and tumour volume were well matched, and treatment was initiated for a duration of 4 to 5 weeks. Treatments consisted of either: a) daily sterile water for the control group, b) an intraperitoneal (i.p.) injection of 50 mg/kg gemcitabine twice a week, c) daily gavage with 100 mg/kg masitinib, or d) combined i.p injection of 50 mg/kg gemcitabine twice a week and daily gavage with 100 mg/kg masitinib. Tumour size was measured with callipers and tumour volume was estimated using the formula: volume=(length×width2)/2. The tumour growth inhibition ratio was calculated as (100)×(median tumour volume of treated group)/(median tumour volume of control group).
Relative changes in tumour volumes were compared between treatment groups using a variance analysis (ANOVA). Normality of relative changes in tumour volumes between day 28 and day 56 was first tested using the Shapiro-Wilk test of normality. […]
The tumour size was monitored every 7 days until day 56, after which time the animals were sacrificed.

Mia Paca-2 cells [2] = test: Gene expression profiling (Affymetrix U133 Plus 2.0 microarrays) and pathway analysis; assay type: cell-based, human; conditions: for down-regulated genes / up-regulated genes: fold-change threshold of 2; for deregulated genes: fold-change threshold of 2, treated/untreated; for deregulated genes specific to the treatment: pathway analysis, Ingenuity
Protocol: Gene expression profiling of cell lines (from 2 μg RNA) was assessed using whole-genome Affymetrix U133 Plus 2.0 human oligonucleotide microarrays. Generation of expression matrices, data annotation, filtering and processing have been previously described [Giroux V et al., 2006 Clin Cancer Res 12: 235-241]. Microarray statistics and cluster analysis were performed by the Robust Multichip Average method in R using Bioconductor and using the Cluster and TreeView programs. Drug response signatures were generated by differential analysis, which compared the expression profile of each treated cell line with that of the untreated cell line by measuring the fold-change (treated/untreated) of each probe set. The lists of differential genes were interrogated using the Ingenuity Pathway Analysis software (Version 5.5.1-1002; Ingenuity Systems, Redwood City, Calif.) with a significance threshold for the corrected p-value<0.05. MIAME compliant array data can be accessed at (www.ebi.ac.uk/arrayexpress) using the accession number GSE17987.
Whole-genome clustering of the four cell samples sorted them into two opposite clusters (data not shown). The two treatment conditions with gemcitabine clustered together (left cluster), whereas cells treated with masitinib alone clustered with the untreated cells (right cluster). […] This was confirmed by the differential analysis of expression profile. […] These drug response expression signatures were characterised via pathway analysis using Ingenuity software. […] This pathway is involved in pancreatic development and re-activation of this signalling system has been implicated in pancreatic carcinoma with reported nuclear localisation of the downstream effector β-catenin. […] Three other pathways altered to a lesser extent included: ERK/MAPK Signalling, CDK5 Signalling, and PI3K/AKT Signalling (p=0.016, 0.025, 0.039, respectively).

pancreatic cancer = conditions: cited from earlier work
FAK = FAK (Homo sapiens, UniProt Q05397); test: FAK activity, preliminary in vitro data; assay type: biochemical
Excerpt: Altogether, this could provide a mechanism of action for masitinib on pancreatic cancer through the reduction of tumour progression or the inhibition of mast cell migration and activation, or both.

Mia Paca-2 cells [3] = test: In vitro tyrosine phosphorylation assay (western blot, anti-pTyr); assay type: cell-based, human; conditions: 6 hours, at 1 μM and beyond
Protocol: (A) Messenger RNA expression of various receptor and cytoplasmic tyrosine kinases was analyzed by RT-PCR. Universal human reference total RNA was used as positive control for primers and the ubiquitous β-glucoronidase (GUS) served as an internal control for all RT-PCR reactions. (B) Tyrosine phosphorylation of proteins in response to masitinib. Mia Paca-2 cells (5×10^6) were treated for 6 hours at 37° C. with various concentrations of masitinib. Total cell lysates were prepared and tyrosine phosphorylation was analyzed by western blot with antibodies against phosphotyrosine (anti-pTyr). […] MW=molecular weight. […] Proteins (20 μg) were resolved by SDS-PAGE 10%, followed by western blotting and immunostaining. The following primary antibodies were used: rabbit anti-phospho-GRB2 antibody (sc-255 1:1000, Santa Cruz, Calif.), and anti-phosphotyrosine antibody (4G10 1:1000, Cell Signalling Technology, Ozyme, France). […] Immunoreactive bands were detected using enhanced chemiluminescent reagents (Pierce, USA). To estimate the range of masitinib concentration necessary to sensitize pancreatic tumor cell lines to chemotherapy, we assessed the ability of masitinib to block protein tyrosine phosphorylation by western blot analysis in cell lysates. […]

[4] = Masitinib clearance half-life; conditions: human, in vivo
Excerpt: At the cut-off date for safety (17 Oct. 2008), all 22 patients enrolled had experienced at least one dose of masitinib. […] One patient reported a masitinib-related grade 4 neutropenia. The most common masitinib-related, haematological grade 3 AEs were anaemia (22.7%), lymphopenia (22.7%), neutropenia (18.2%) and leucopoenia (18.2%). The most common, masitinib-related, non-haematological grade 3 AE was asthenia (13.6% of patients). […] One patient's death was reported to be due to several AEs (two syncopes, severe abdominal pain, hypotension, grade 2 anemia, acute renal failure and respiratory distress syndrome) and was suspected to be related to masitinib at the time of occurrence. However, masitinib had been interrupted for 6 days before these fatal AEs occurred. […] Thus, the death of this patient is most unlikely related to masitinib. Four other deaths occurred during this study but none were suspected to be treatment related.

[5] = Mia Paca-2, single agent, 72 hours, 1% FCS, read-out: IC50
[6] = Panc-1, single agent, 72 hours, 1% FCS, read-out: IC50

Chain of FAK (Q05397 whole entry): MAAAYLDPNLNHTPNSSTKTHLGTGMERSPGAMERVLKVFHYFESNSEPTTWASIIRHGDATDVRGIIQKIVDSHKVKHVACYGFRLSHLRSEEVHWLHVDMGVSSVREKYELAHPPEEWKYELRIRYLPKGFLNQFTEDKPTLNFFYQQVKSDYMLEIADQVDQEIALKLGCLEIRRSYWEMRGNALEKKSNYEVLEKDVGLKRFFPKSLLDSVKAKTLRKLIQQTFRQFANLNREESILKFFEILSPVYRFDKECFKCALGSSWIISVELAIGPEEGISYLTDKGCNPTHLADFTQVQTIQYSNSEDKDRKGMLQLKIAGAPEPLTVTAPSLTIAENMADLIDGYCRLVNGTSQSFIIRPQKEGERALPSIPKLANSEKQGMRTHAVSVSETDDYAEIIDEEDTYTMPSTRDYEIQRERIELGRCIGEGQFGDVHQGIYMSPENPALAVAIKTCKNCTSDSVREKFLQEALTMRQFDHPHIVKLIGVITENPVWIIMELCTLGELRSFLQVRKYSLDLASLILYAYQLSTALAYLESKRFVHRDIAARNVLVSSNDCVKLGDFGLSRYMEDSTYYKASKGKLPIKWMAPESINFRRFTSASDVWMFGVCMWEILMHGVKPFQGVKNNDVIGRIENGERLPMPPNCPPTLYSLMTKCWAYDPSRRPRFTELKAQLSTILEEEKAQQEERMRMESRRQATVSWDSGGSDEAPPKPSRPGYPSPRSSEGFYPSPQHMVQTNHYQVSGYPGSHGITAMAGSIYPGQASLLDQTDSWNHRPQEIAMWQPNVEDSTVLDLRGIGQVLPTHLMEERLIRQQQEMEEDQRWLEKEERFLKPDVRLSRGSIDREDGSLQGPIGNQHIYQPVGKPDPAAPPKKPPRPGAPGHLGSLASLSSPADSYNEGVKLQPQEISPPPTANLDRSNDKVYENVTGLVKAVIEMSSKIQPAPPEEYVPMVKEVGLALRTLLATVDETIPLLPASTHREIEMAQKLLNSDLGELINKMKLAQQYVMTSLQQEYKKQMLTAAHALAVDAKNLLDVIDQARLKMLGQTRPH

## Nc1ccn(C2OC(CO)C(O)C2(F)F)c(=O)n1 (centres unmarked) [Gemcitabine, 4-amino-1-[3,3-difluoro-4-hydroxy-5-(hydroxymethyl)tetrahydrofuran-2-yl]-1H-pyrimidin-2-one]
BxPC-3; 72 hours
  IC50: 2 to 20 µM
Capan-2; 72 hours
  IC50: 2 µM
Capan-2; Homo sapiens, Capan-2, 72 h
  IC50: 2 to 20 µM
Mia Paca-2; Mia Paca-2, gemcitabine monotherapy, read-out: IC50 (resistance)
  IC50: > 2500 µM
Mia Paca-2; [5]
  IC50: > 10 µM
Panc-1; Panc-1, gemcitabine monotherapy, read-out: IC50 (resistance)
  IC50: > 2500 µM
Panc-1; [6]
  IC50: > 10 µM
[1]; FIG. 3
  tumour growth between day 35 and 49: stabilization of tumour growth
[1]
  Tumour volume, Median: 662* mm^3
Mia Paca-2 cells [2]
  down-regulated genes: 113 genes
  up-regulated genes: 1048 genes
  deregulated genes: 1161 genes
  deregulated genes specific to the treatment: 818 genes
Pancreatic cancer; Burris et al. 1997, advanced pancreatic population (locally advanced and metastatic)
  medium TTP: 2.33 months
Pancreatic cancer; Storniolo et al. 1999, solely locally advanced patients
  TTP threshold: 4.1 months
Pancreatic cancer; clinical trial of erlotinib plus gemcitabine versus gemcitabine monotherapy, p=0.023
  1-year survival rate: 17%
Pancreatic cancer; clinical trial of erlotinib plus gemcitabine versus gemcitabine monotherapy
  median OS: 5.91 months
Pancreatic cancer; comparison
  12-month survival rates, published: 21%
  median OS, published: 6 months
Pancreatic cancer; standard gemcitabine therapy
  1-year survival rate: 21%
Pancreatic cancer; standard gemcitabine therapy, locally advanced, unresectable, or metastatic pancreatic adenocarcinoma
  median overall survival (OS): 6 months

## Cc1ccc(NC(=O)c2ccc(CN3CCN(C)CC3)cc2)cc1Nc1nc(-c2cccnc2)cs1 [Masitinib, 4-(4-methylpiperazin-1-ylmethyl)-N-[4-methyl-3-(4-pyridin-3ylthiazol-2-ylamino)phenyl]benzamide]
FAK
  FAK auto-activation: partially inhibits FAK auto-activation
FAK; masitinib 1 μM
  reduces FAK activity: 21%
Mia Paca-2 cells [3]
  protein tyrosine phosphorylation (western blot): clearly inhibited tyrosine phosphorylation
BxPC-3; Homo sapiens, BXPC-3, 72 h
  IC50: 5 to 10 µM
Capan-2; Homo sapiens, Capan-2, 72 h
  IC50: 5 to 10 µM
Mia Paca-2
  response of Mia Paca-2 cells to gemcitabine after pre-incubation with TKI: able to restore sensitivity to gemcitabine
Mia Paca-2; [5]
  IC50: 5 to 10 µM
Panc-1; [6]
  IC50: 5 to 10 µM
[1]
  Tumour volume, Median: 865 mm^3
Mia Paca-2 cells [2]
  down-regulated genes: 29 genes
  up-regulated genes: 325 genes
  deregulated genes: 354 genes
  deregulated genes specific to the treatment: 201 genes
[4]
  half-life: 17 h

## Cc1nc(Nc2ncc(C(=O)Nc3c(C)cccc3Cl)s2)cc(N2CCN(CCO)CC2)n1 [dasatinib]
Mia Paca-2; Mia Paca-2, dasatinib alone >0.1 μM
  cells remaining resistant: < 50%

## Cc1ccc(NC(=O)c2ccc(CN3CCN(C)CC3)cc2)cc1Nc1nccc(-c2cccnc2)n1 [imatinib]
Mia Paca-2
  response of Mia Paca-2 cells to gemcitabine after pre-incubation with TKI: did not result in an increased response
Mia Paca-2; imatinib alone 10 μM
  Mia Paca-2 cell proliferation, TKI alone: not inhibited
